# Source: PubChem BioAssay (NCI)
# Several values for one entry are separate records, joined by “and”; a condition that tells them apart may be missing. Identical values can stand only once.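 How tested: cells in 96-well plates exposed to compound for 48 hours at five concentrations. GI50 is the concentration that inhibits growth by half. TGI is the concentration that stops growth completely.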
# Columns and labels:
# Assay in all cases: NCI tumour cell line growth inhibition, 48 h
# MALME-3M melanoma = system: MALME-3M melanoma
# OVCAR-8 ovarian = system: OVCAR-8 ovarian
# U251 CNS = system: U251 CNS
# P388/ADR leukemia = system: P388/ADR leukemia
# 786-0 renal = system: 786-0 renal
# HCC-2998 colon = system: HCC-2998 colon
# OVCAR-4 ovarian = system: OVCAR-4 ovarian
# LOX IMVI melanoma = system: LOX IMVI melanoma
# RPMI-8226 leukemia = system: RPMI-8226 leukemia
# SR leukemia = system: SR leukemia
# ACHN renal = system: ACHN renal
# SN12C renal = system: SN12C renal
# NCI-H460 lung = system: NCI-H460 lung
# SF-539 CNS = system: SF-539 CNS
# HOP-92 NSCLC = system: HOP-92 NSCLC
# NCI/ADR-RES ovarian = system: NCI/ADR-RES ovarian
# MCF7 breast = system: MCF7 breast
# UACC-257 melanoma = system: UACC-257 melanoma
# HT29 colon = system: HT29 colon
# SN12K1 renal = system: SN12K1 renal
# RXF 393 renal = system: RXF 393 renal
# SK-MEL-28 melanoma = system: SK-MEL-28 melanoma
# SNB-19 CNS = system: SNB-19 CNS
# OVCAR-3 ovarian = system: OVCAR-3 ovarian
# BT-549 breast = system: BT-549 breast
# M14 melanoma = system: M14 melanoma
# HCT-15 colon = system: HCT-15 colon
# DMS 273 small cell lung = system: DMS 273 small cell lung
# SNB-75 CNS = system: SNB-75 CNS
# DLD-1 colon = system: DLD-1 colon
# DU-145 prostate = system: DU-145 prostate
# MDA-MB-231 breast = system: MDA-MB-231 breast
# SF-268 CNS = system: SF-268 CNS
# HCT-116 colon = system: HCT-116 colon
# NCI-H226 lung = system: NCI-H226 lung
# A498 renal = system: A498 renal
# T-47D breast = system: T-47D breast
# UACC-62 melanoma = system: UACC-62 melanoma
# SNB-78 CNS = system: SNB-78 CNS
# COLO 205 colon = system: COLO 205 colon
# NCI-H23 lung = system: NCI-H23 lung
# HS 578T breast = system: HS 578T breast
# KM12 colon = system: KM12 colon
# OVCAR-5 ovarian = system: OVCAR-5 ovarian
# UO-31 renal = system: UO-31 renal
# SK-MEL-5 melanoma = system: SK-MEL-5 melanoma
# PC-3 prostate = system: PC-3 prostate
# MDA-N = system: MDA-N
# CAKI-1 renal = system: CAKI-1 renal
# KM20L2 colon = system: KM20L2 colon
# HL-60(TB) leukemia = system: HL-60(TB) leukemia
# NCI-H522 lung = system: NCI-H522 lung
# P388 leukemia = system: P388 leukemia
# K-562 leukemia = system: K-562 leukemia
# SF-295 CNS = system: SF-295 CNS
# EKVX NSCLC = system: EKVX NSCLC
# MDA-MB-435 = system: MDA-MB-435
# M19-MEL melanoma = system: M19-MEL melanoma
# TK-10 renal = system: TK-10 renal
# DMS 114 small cell lung = system: DMS 114 small cell lung
# IGROV1 ovarian = system: IGROV1 ovarian
# A549 NSCLC = system: A549 NSCLC
# SK-OV-3 ovarian = system: SK-OV-3 ovarian
# HOP-18 NSCLC = system: HOP-18 NSCLC
smiles,measurement,setting,value
CNCCN=c1ccc2c3c1c(O)c1c(O)ccc(=O)c1c3[nH]n2CCNCCO,GI50,MALME-3M melanoma,696 nM and 511 nM
same,GI50,OVCAR-8 ovarian,174 nM and 366 nM
same,TGI,OVCAR-8 ovarian,6050 nM and 5420 nM
same,TGI,U251 CNS,287 nM
same,GI50,P388/ADR leukemia,751 nM
same,TGI,P388/ADR leukemia,16300 nM and 32900 nM
same,GI50,786-0 renal,50 nM
same,TGI,786-0 renal,1790 nM and 677 nM
same,TGI,HCC-2998 colon,1610 nM and 8620 nM
same,GI50,OVCAR-4 ovarian,861 nM and 923 nM
same,TGI,OVCAR-4 ovarian,3260 nM and 5540 nM
same,GI50,LOX IMVI melanoma,94.9 nM and 395 nM
same,GI50,RPMI-8226 leukemia,129 nM and 294 nM
same,TGI,RPMI-8226 leukemia,5040 nM and 12400 nM
same,TGI,SR leukemia,3250 nM
same,GI50,ACHN renal,84.4 nM and 77.5 nM
same,TGI,ACHN renal,708 nM and 259 nM
same,GI50,SN12C renal,85.9 nM
same,TGI,SN12C renal,2410 nM and 2390 nM
same,GI50,NCI-H460 lung,0.851 nM
same,TGI,NCI-H460 lung,1210 nM
same,GI50,SF-539 CNS,57.6 nM
same,TGI,SF-539 CNS,1320 nM
same,GI50,HOP-92 NSCLC,199 nM
same,TGI,HOP-92 NSCLC,2640 nM and 1370 nM
same,TGI,NCI/ADR-RES ovarian,46900 nM and 404000 nM and 239000 nM
same,GI50,MCF7 breast,56.8 nM and 50 nM
same,TGI,MCF7 breast,7510 nM and 5200 nM
same,TGI,UACC-257 melanoma,7000 nM
same,GI50,HT29 colon,587 nM
same,TGI,HT29 colon,3710 nM and 9040 nM
same,GI50,SN12K1 renal,50 nM
same,TGI,SN12K1 renal,2540 nM and 598 nM
same,GI50,RXF 393 renal,744 nM and 173 nM
same,TGI,RXF 393 renal,2540 nM and 1250 nM
same,GI50,SK-MEL-28 melanoma,1500 nM
same,TGI,SK-MEL-28 melanoma,6870 nM
same,GI50,SNB-19 CNS,30.8 nM and 110 nM
same,GI50,OVCAR-3 ovarian,1160 nM
same,TGI,OVCAR-3 ovarian,3990 nM and 5120 nM
same,TGI,BT-549 breast,2430 nM
same,GI50,M14 melanoma,397 nM and 1190 nM
same,TGI,M14 melanoma,3410 nM and 10400 nM
same,GI50,HCT-15 colon,1520 nM
same,TGI,HCT-15 colon,24800 nM and 41200 nM
same,GI50,DMS 273 small cell lung,53 nM and 97.8 nM
same,TGI,DMS 273 small cell lung,1590 nM and 336 nM
same,GI50,SNB-75 CNS,29.4 nM and 77.2 nM
same,TGI,SNB-75 CNS,387 nM and 149 nM
same,TGI,DLD-1 colon,11600 nM and 11900 nM and 19600 nM
same,TGI,DU-145 prostate,1270 nM and 942 nM
same,GI50,MDA-MB-231 breast,970 nM and 504 nM
same,TGI,MDA-MB-231 breast,5450 nM and 9630 nM
same,TGI,SF-268 CNS,2570 nM
same,GI50,HCT-116 colon,207 nM
same,TGI,HCT-116 colon,4900 nM and 5370 nM
same,GI50,NCI-H226 lung,0.924 nM
same,TGI,NCI-H226 lung,336 nM
same,GI50,A498 renal,102 nM and 405 nM
same,TGI,A498 renal,1140 nM and 5150 nM
same,TGI,T-47D breast,5350 nM
same,GI50,UACC-62 melanoma,74.1 nM
same,TGI,UACC-62 melanoma,3070 nM
same,TGI,SNB-78 CNS,10500 nM
same,GI50,COLO 205 colon,398 nM and 560 nM
same,TGI,COLO 205 colon,4410 nM and 4590 nM
same,TGI,NCI-H23 lung,2750 nM
same,TGI,HS 578T breast,1410 nM
same,GI50,KM12 colon,918 nM
same,TGI,KM12 colon,4230 nM and 15100 nM
same,GI50,OVCAR-5 ovarian,900 nM
same,TGI,OVCAR-5 ovarian,3360 nM and 11500 nM
same,GI50,UO-31 renal,918 nM and 3470 nM
same,TGI,UO-31 renal,13000 nM and 62200 nM
same,GI50,SK-MEL-5 melanoma,84.7 nM and 139 nM
same,TGI,SK-MEL-5 melanoma,962 nM and 2060 nM
same,GI50,PC-3 prostate,410 nM
same,TGI,PC-3 prostate,6660 nM and 4900 nM
same,TGI,MDA-N,2700 nM
same,GI50,CAKI-1 renal,54 nM
same,TGI,CAKI-1 renal,992 nM and 2280 nM
same,TGI,KM20L2 colon,6700 nM and 12200 nM and 1510 nM
same,GI50,HL-60(TB) leukemia,49.6 nM and 314 nM
same,TGI,HL-60(TB) leukemia,663 nM and 1220 nM
same,GI50,NCI-H522 lung,194 nM and 627 nM
same,GI50,P388 leukemia,< 17.2 nM and 84.5 nM
same,TGI,P388 leukemia,44.8 nM and 246 nM
same,GI50,K-562 leukemia,224 nM and 296 nM
same,TGI,K-562 leukemia,3660 nM and 10900 nM
same,GI50,SF-295 CNS,36.9 nM
same,TGI,SF-295 CNS,794 nM and 811 nM
same,GI50,EKVX NSCLC,1840 nM and 889 nM
same,TGI,EKVX NSCLC,10500 nM and 3500 nM
same,TGI,MDA-MB-435,3320 nM
same,GI50,M19-MEL melanoma,147 nM and 179 nM
same,TGI,M19-MEL melanoma,2720 nM and 1130 nM
same,GI50,TK-10 renal,1140 nM and 5320 nM
same,TGI,TK-10 renal,7540 nM and 18600 nM
same,TGI,DMS 114 small cell lung,2910 nM and 834 nM
same,GI50,IGROV1 ovarian,1250 nM
same,TGI,IGROV1 ovarian,11200 nM and 12900 nM
same,GI50,A549 NSCLC,27 nM
same,TGI,A549 NSCLC,4650 nM and 4570 nM
same,GI50,SK-OV-3 ovarian,137 nM and 162 nM
same,TGI,SK-OV-3 ovarian,3250 nM and 5720 nM
same,TGI,HOP-18 NSCLC,2180 nM and 7730 nM and 6040 nM
